{"source": "patent US9682147B2", "about": "“Self-preserved oil dispersions comprising boric acid” (SANTEN SAS, priority 2012, dated 2017)", "origin": "cited, not measured here", "key": {"[1]": {"tested_on": "corneal and epithelial cells"}, "corneal cells": {"tested_on": "corneal cells", "settings": "boric acid used in cleaning contact lenses solutions"}, "[2]": {"settings": "solution comprising 1.2% w/w of borate"}}, "note": "Read-outs that look alike come from different tables or passages of the source.", "data": [{"molecule": "OB(O)O", "note": "[boric acid]", "values": [{"measurement": "Toxicity to corneal and epithelial cells", "setting": "[1]; 0.5% to 1% boric acid", "result": "toxic"}, {"measurement": "Toxicity to corneal and epithelial cells", "setting": "[1]; concentration of 0.1% boric acid", "result": "safe"}, {"measurement": "Corneal cytotoxicity", "setting": "corneal cells", "result": "strong corneal cytotoxicity"}]}, {"molecule": "borate", "values": [{"measurement": "Antimicrobial activity", "setting": "[2]", "result": "some antimicrobial activity"}, {"measurement": "Criteria for antimicrobial effectiveness given by USP", "setting": "[2]", "result": "not sufficient to meet the criteria"}]}]}
